Reference: patent publication US20030166721A1, “Choline derivative for the treatment of alzheimer's disease” (priority 2000, published 2003)

Tests used:
[1] = target: T1, Choline Specific Transport System (HUCT) (Rattus norvegicus, UniProt Q9JMD7); experiment: EEG after ICV Hemicholinium-3 (choline uptake blocker) pretreatment; assay type: in vivo; details: rats, ICV 1 μg-0.1 ng
T1 construct: from tissue; host or cells: brain of living Wistar rats (in vivo, ICV microinfusion, EEG read-out)
T1 sequence (Q9JMD7 1-580): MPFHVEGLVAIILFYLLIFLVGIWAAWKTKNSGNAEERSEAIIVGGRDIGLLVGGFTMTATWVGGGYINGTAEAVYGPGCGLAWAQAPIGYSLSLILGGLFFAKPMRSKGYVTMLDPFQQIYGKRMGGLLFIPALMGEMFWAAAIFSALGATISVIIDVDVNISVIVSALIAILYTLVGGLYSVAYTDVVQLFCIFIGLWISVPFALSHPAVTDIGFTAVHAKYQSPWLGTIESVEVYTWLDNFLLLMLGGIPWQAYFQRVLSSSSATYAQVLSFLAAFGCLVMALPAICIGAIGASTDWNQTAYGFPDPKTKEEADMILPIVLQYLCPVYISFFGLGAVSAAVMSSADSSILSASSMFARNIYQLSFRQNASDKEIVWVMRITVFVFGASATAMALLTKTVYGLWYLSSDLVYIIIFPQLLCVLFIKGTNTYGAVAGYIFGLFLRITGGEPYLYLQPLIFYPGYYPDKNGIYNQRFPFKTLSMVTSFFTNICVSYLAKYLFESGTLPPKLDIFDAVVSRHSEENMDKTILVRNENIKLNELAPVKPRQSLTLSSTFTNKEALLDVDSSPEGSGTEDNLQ
Experimental: FIG. 4B—Effect on EEG spectrum power after treatment with PC-1 (5 mg i.p.) administered 15 min after microinfusion of Hch3 (0.1 ng/0.5 μl) in the III ventricule. As in FIG. 4a, time (min) is reported in abscissa, the EEG spectrum power expressed as μV^2/s is reported in ordinate. Graphics report the EEG spectrum total power (0.25-16 Hz).

rats = experiment: Synergistic effect with tacrine: qEEG of neocortical activity in rats; assay type: in vivo, rat; details: n=7; for EEG power (qEEG of neocortical activity), 15″ / EEG power (qEEG of neocortical activity), 30″ / EEG power (qEEG of neocortical activity), 45″ / EEG power (qEEG of neocortical activity), 60″ / EEG power (qEEG of neocortical activity), 75″ / EEG power (qEEG of neocortical activity), 90″ / EEG power (qEEG of neocortical activity), 105″ / EEG power (qEEG of neocortical activity), 120″ / EEG power (qEEG of neocortical activity), 135″: rats i.p., PC-1/PC-2 15 μmol/2 ml/kg, THA 5 mg/kg 30 min before, atropine 0.1 mg/kg 15 min before; for EEG power (qEEG of neocortical activity), Baseline: before i.p. treatment
Experimental: Results reported in Table 5 show the synergistic effect of the combination of tacrine with the choline derivatives of the present invention.
Vehicle: 2 ml/Kg; all drugs were administered i.p., PC-1 and PC-2 at corresponding equimolar doses (15 μmol/2 ml/kg^−1); THA (tacrine) (5 mg/kg) was administered 30 min before compounds; atropine (0.1 mg/kg) was injected 15 min before PC-1 and PC-2. The number of animals was 7 per each group. Values represent EEG power (μV/s).

Wistar rats [2] = experiment: EEG spectral qualitative and quantitative analysis in freely moving rats after i.p. administration; assay type: in vivo, rat; details: for EEG frequency band 0.25-3 Hz / EEG frequency band 3-6 Hz / EEG frequency band 6-9 Hz / EEG frequency band 9-12 Hz / EEG frequency band 12-16 Hz: after i.p. administration, % ± SEM; for Effect of atropine given 15 min before the compound: atropine pretreatment; for EEG total power (fronto-parietal cortex), Baseline: before i.p. injection (vol. 0.5 ml); for EEG total power (fronto-parietal cortex), Baseline / EEG total power (fronto-parietal cortex), 15′ / EEG total power (fronto-parietal cortex), 30′ / EEG total power (fronto-parietal cortex), 45′ / EEG total power (fronto-parietal cortex), 60′ / EEG total power (fronto-parietal cortex), 75′ / EEG total power (fronto-parietal cortex), 90′: mean ± SEM, 7 tests; for EEG total power (fronto-parietal cortex), 15′ / EEG total power (fronto-parietal cortex), 30′ / EEG total power (fronto-parietal cortex), 45′ / EEG total power (fronto-parietal cortex), 60′ / EEG total power (fronto-parietal cortex), 75′ / EEG total power (fronto-parietal cortex), 90′: i.p. (vol. 0.5 ml)
Experimental: Young male Wistar rats (200-260) were used in the experiments, housed in a standard temperature and humidity conditions, with food and water ad libitum. […] After surgery all animals were housed 48 h to allow a complete recovery. 48 Hours after electrode implantation, the animals, placed in a transparent box and freely moving, were connected with an electroencephalograph and the electrocortical activity was continuously monitored and recorded. […] Qualitative and quantitative analysis on the electrocortical activity EEG recording was subsequently carried out. The animals were divided in 4 groups, the first group acted as the control, the second received cytidine-5′-diphosphocholine (CDP-choline), the third and fourth received PC-1 and PC-2, respectively (pivaloylcholine iodide and pivaloyleholine trimethylacetate, respectively). The control group received an equal volume of saline solution by the same procedure. […] Statistical analysis was performed by analysis of variance (ANOVA) for multiple measurements followed, if significant, by the post-hoc Tuckey-Kramer test. A comparison between groups was performed to exclude any individual variability.

Wistar rats [3] = experiment: Behavioural and EEG effects in rats at different doses; assay type: in vivo, rat
Experimental: Young male Wistar rats (200-260) were used in the experiments, housed in a standard temperature and humidity conditions, with food and water ad libitum.
The animals, anaesthetised with chloral hydrate (400 mg/kg) […], were stereotaxically implanted (Kopft Instruments) with cortical electrodes (n=4) onto the fronto-parietal region of the neocortex on both cerebral hemispheres, to record EEG. After surgery all animals were housed 48 h to allow a complete recovery.
48 Hours after electrode implantation, the animals, placed in a transparent box and freely moving, were connected with an electroencephalograph and the electrocortical activity was continuously monitored and recorded. After a 30 min control time, the compounds under test were intraperitoneally administered and EEG recording was continued for 90-120 min
EEG was recorded by computerised 24-channels apparatus (Vega 24, Galileo type, ESA-OTE Biomedica, Florence, Italy), while the spectrum activity was quantitatively analysed by a Berg Fourier analyser (ESA-OTE Biomedica, Florence, Italy). The total EEG power (0.25-16 Hz range) was divided into 5 variable frequency bands: δ 0.25-3 Hz, θ 3-6; α1 6-9; α2 9-12 and β12-16 Hz.
The EEG patterns and behavioral effects observed in the rat after administration of the choline derivatives and of the vehicle is reported in 5 Tab. 3. Such effects can be ascribed to the changes of EEG spectrum total power. An […] in EEG total power is related with the presence of slow frequency waves (synchronisation), whereas an […] thereof is related with the presence of rapid frequency waves (desynchronisation).

C[N+]1(C)CCOC(O)(c2ccc(-c3ccc(C4(O)C[N+](C)(C)CCO4)cc3)cc2)C1.[Br-].[Br-] (centres unmarked) [Hch3, Hemicholinium-3, reference compound]
Behavioural and EEG effect of ICV administration [1]: behavioural sedation and sleep, EEG synchronization and increase in EEG total power

pivaloylcholine trimethylacetate [PC-2]
EEG power (qEEG of neocortical activity), 15″ (rats): 58.5 μV/s | EEG power (qEEG of neocortical activity), 30″ (rats): 64.5 μV/s | EEG power (qEEG of neocortical activity), 45″ (rats): 98 μV/s | EEG power (qEEG of neocortical activity), 60″ (rats): 103 μV/s | EEG power (qEEG of neocortical activity), 75″ (rats): 97.5 μV/s | EEG power (qEEG of neocortical activity), 90″ (rats): 110.3 μV/s | EEG power (qEEG of neocortical activity), 105″ (rats): 124 μV/s | EEG power (qEEG of neocortical activity), 120″ (rats): 120.5 μV/s | EEG power (qEEG of neocortical activity), 135″ (rats): 117.5 μV/s | EEG effect with tacrine given 30 min before (rats; rats, THA 5 mg/Kg i.p. 30 min before 15 μmol i.p.): long-lasting EEG desynchronization and significant decrease in EEG spectrum total power | EEG power (qEEG of neocortical activity), Baseline (rats; rats): 105 μV/s | Change of slow EEG spectrum components (FIG. 3) (Wistar rats [2]): decrease in slow components (delta and theta) of the spectrum | Duration of the decrease in EEG total power (Wistar rats [2]; 5 mg i.p.): about 30 min | Time to onset of EEG desynchronization and significant decrease in EEG total power (Wistar rats [2]; 5 mg i.p.): ≤ 15 min | EEG 60 min after administration (Wistar rats [2]; 5 mg i.p., 60 min): rapid frequency activity (about 16 Hz) and significant increase (P<0.01) in EcoG total power | EEG frequency band 0.25-3 Hz (Wistar rats [2]): 2.4 ± 1.3(**) % | EEG frequency band 3-6 Hz (Wistar rats [2]): 21.3 ± 0.9% | EEG frequency band 6-9 Hz (Wistar rats [2]): 22.3 ± 1.3% | EEG frequency band 9-12 Hz (Wistar rats [2]): 13.5 ± 0.7% | EEG frequency band 12-16 Hz (Wistar rats [2]): 22.5 ± 1.6(*) % | Effect of atropine given 15 min before the compound (Wistar rats [2]): antagonize the effects | EEG total power (fronto-parietal cortex), Baseline (Wistar rats [2]): 93 ± 3.5 | EEG total power (fronto-parietal cortex), 15′ (Wistar rats [2]): 50 ± 1.9(**) | EEG total power (fronto-parietal cortex), 30′ (Wistar rats [2]): 55 ± 2.5(*) | EEG total power (fronto-parietal cortex), 45′ (Wistar rats [2]): 90 ± 3.3 | EEG total power (fronto-parietal cortex), 60′ (Wistar rats [2]): 132 ± 1.5(*) | EEG total power (fronto-parietal cortex), 75′ (Wistar rats [2]): 96 ± 2.7 | EEG total power (fronto-parietal cortex), 90′ (Wistar rats [2]): 90 ± 3.6 | Behaviour (Wistar rats [3]; 5 mg): Alert response | EEG Activity (change of EEG total power) (Wistar rats [3]; 5 mg): Decrease | Behaviour (Wistar rats [3]; 50 mg): Convulsions and death (50%) | EEG Activity (change of EEG total power) (Wistar rats [3]; 50 mg): Peaks

Nc1c2c(nc3ccccc13)CCCC2 [THA, tacrine, reference compound]
EEG power (qEEG of neocortical activity), 15″ (rats): 72.5 μV/s | EEG power (qEEG of neocortical activity), 30″ (rats): 68 μV/s | EEG power (qEEG of neocortical activity), 45″ (rats): 75.5 μV/s | EEG power (qEEG of neocortical activity), 60″ (rats): 97.5 μV/s | EEG power (qEEG of neocortical activity), 75″ (rats): 122 μV/s | EEG power (qEEG of neocortical activity), 90″ (rats): 129.5 μV/s | EEG power (qEEG of neocortical activity), 105″ (rats): 135 μV/s | EEG power (qEEG of neocortical activity), 120″ (rats): 137 μV/s | EEG power (qEEG of neocortical activity), 135″ (rats): 119.5 μV/s | EEG power (qEEG of neocortical activity), Baseline (rats; rats): 118 μV/s

C[N+](C)(C)CCOP(=O)(O)OP(=O)([O-])OC[C@H]1O[C@@H](n2ccc(N)nc2=O)[C@H](O)[C@@H]1O [CDP-choline, cytidine-5′-diphosphocholine, reference compound]
Time to onset of EEG desynchronization and significant decrease in EEG total power (Wistar rats [2]; 5 mg i.p.): 60 min | EEG frequency band 0.25-3 Hz (Wistar rats [2]): 3.8 ± 1.3(*) % | EEG frequency band 3-6 Hz (Wistar rats [2]): 19.2 ± 1.5(*) % | EEG frequency band 6-9 Hz (Wistar rats [2]): 31.5 ± 0.9% | EEG frequency band 9-12 Hz (Wistar rats [2]): 18.5 ± 1.7% | EEG frequency band 12-16 Hz (Wistar rats [2]): 20.5 ± 1.3% | Effect of atropine given 15 min before the compound (Wistar rats [2]): antagonize the effects | EEG total power (fronto-parietal cortex), Baseline (Wistar rats [2]): 98 ± 3.6 | EEG total power (fronto-parietal cortex), 15′ (Wistar rats [2]): 93 ± 2.9 | EEG total power (fronto-parietal cortex), 30′ (Wistar rats [2]): 271 ± 3.2 | EEG total power (fronto-parietal cortex), 45′ (Wistar rats [2]): 89 ± 2.9 | EEG total power (fronto-parietal cortex), 60′ (Wistar rats [2]): 65 ± 2(*) | EEG total power (fronto-parietal cortex), 75′ (Wistar rats [2]): 95 ± 3.3 | EEG total power (fronto-parietal cortex), 90′ (Wistar rats [2]): 103 ± 2.6 | Behaviour (Wistar rats [3]; 1 mg): No effects | EEG Activity (change of EEG total power) (Wistar rats [3]; 1 mg): No effects | Behaviour (Wistar rats [3]; 5 mg): Alert response | EEG Activity (change of EEG total power) (Wistar rats [3]; 5 mg): Decrease | Behaviour (Wistar rats [3]; 25 mg): Sedation | EEG Activity (change of EEG total power) (Wistar rats [3]; 25 mg): Increase | Behaviour (Wistar rats [3]; 50 mg): Sedation | EEG Activity (change of EEG total power) (Wistar rats [3]; 50 mg): No effects
